Laboratory results: publication PMC10827914 (Cellular and Molecular Life Sciences: CMLS, 2024)
Structures can show the parent of a compound that is named as a salt.

Experiments:
[1] = test system: recombinant human aminopeptidase B (APB); assay: Enzyme activity assay of recombinant APB; type: biochemical; conditions: APB 0.2 µg/mL, 60 mM Tris–HCl pH 7.4, 100 mM KCl, 0.1 mM L-arginine-7-amido-4-methylcoumarin, 30 min, 37 °C
Experimental: The effect of peptides on the enzymatic activity of APA and APB was evaluated using the method described previously with some modifications. Briefly, threefold serial dilution of peptides (ranging from 0 to 10 or 100 µM) were incubated with either APA (0.2 µg/mL in 60 mM Tris–HCl pH 7.4, 50 mM CaCl2, 200 mM NaCl) or APB (0.2 µg/mL in 60 mM Tris–HCl pH 7.4, 100 mM KCl) and relative substrates at 0.1 mM (L-glutamic acid γ-(7-amido-4-methylcoumarin) or L-arginine-7-amido-4-methylcoumarin, respectively) in 96-well bottom clear black polystyrene microtiter plates (100 µl/well). The mixture was incubated for 30 min at 37 °C in a humid box, and the cleavage of the substrate was correlated with aminopeptidase enzymatic activities by measuring the fluorescence of methylcoumarin at λex 341 nm and λem 441 nm with a plate reader (Infinite 200 PRO, Tecan). IC50 was calculated as reported above for CD13 activity.
Fig. 2 G4 recognizes soluble forms of CD13, with higher affinity and selectivity than bestatin, and the membrane forms expressed on the surface of HUVEC cells. […] The mixtures were incubated for 30 min at 37 °C, and the cleavage of each substrate was monitored by measuring the fluorescence of methylcoumarin (λex 341 nm; λem 441 nm) using an Infinite 200 PRO plate reader (Tecan). […] After incubation for 60 min at 4 °C, the cells were washed and analyzed by flow cytometry. […]

[2] = target: T1, recombinant human CD13 (rCD13) (Homo sapiens, UniProt P15144); assay: rCD13 enzyme inhibition assay, L-alanine 7-amido-4-methylcoumarin substrate; type: biochemical; conditions: rCD13 0.2 µg/mL, 60 mM Tris–HCl pH 7.4, 0.1 mM L-alanine-7-amido-4-methylcoumarin, 30 min, 37 °C
T1 construct: consisting of the CD13 extracellular domain expressed in HEK-293 cells; His-tag; purchased Sino Biological 10051-H08H; host or cells: HEK-293 cells
T1 sequence (P15144 33-967 limits assumed): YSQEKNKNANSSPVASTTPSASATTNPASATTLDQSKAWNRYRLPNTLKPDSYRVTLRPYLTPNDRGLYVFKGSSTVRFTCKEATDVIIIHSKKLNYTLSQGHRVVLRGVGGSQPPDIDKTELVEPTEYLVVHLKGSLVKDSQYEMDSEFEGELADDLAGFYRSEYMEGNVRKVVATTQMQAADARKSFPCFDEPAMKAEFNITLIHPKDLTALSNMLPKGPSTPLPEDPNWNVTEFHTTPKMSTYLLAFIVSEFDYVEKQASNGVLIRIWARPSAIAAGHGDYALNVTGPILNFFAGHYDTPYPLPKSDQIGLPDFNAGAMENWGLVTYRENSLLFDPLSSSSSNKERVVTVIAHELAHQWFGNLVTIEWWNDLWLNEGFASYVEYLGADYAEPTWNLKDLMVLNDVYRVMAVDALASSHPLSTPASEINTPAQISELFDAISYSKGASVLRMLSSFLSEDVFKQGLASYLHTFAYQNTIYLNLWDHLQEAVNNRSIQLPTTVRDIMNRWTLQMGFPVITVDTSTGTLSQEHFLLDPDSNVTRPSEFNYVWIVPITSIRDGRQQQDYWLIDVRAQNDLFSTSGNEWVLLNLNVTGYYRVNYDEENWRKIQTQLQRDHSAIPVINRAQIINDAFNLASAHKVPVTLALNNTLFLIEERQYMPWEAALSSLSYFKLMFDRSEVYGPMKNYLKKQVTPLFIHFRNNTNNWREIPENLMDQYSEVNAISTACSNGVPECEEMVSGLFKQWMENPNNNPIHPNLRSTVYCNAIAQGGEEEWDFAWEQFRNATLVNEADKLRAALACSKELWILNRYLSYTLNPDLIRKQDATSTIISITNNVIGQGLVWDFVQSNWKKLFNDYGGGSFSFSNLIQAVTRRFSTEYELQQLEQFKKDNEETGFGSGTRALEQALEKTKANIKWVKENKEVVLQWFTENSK
Experimental: (§1) Recombinant CD13 (rCD13) enzyme activity and inhibition assays were performed as described previously using L-alanine-p-nitroanilide or L-alanine 7-amido-4-methylcoumarin as substrates in 60 mM Tris–HCl, pH 7.4, or 60 mM potassium phosphate buffer, pH 7.4. Mixtures containing peptides at various concentrations, rCD13 (0.2 µg/mL), and L-alanine-p-nitroanilide substrate (0.5 mM) in 60 mM potassium phosphate buffer, pH 7.4 (total volume, 0.1 ml) were prepared and left to react for 30 min at 37 °C. The products were then analyzed using a plate reader (iMark Microplate Absorbance Reader; Bio-Rad). Alternatively, the assay was performed using 0.1 mM L-alanine 7-amido-4-methylcoumarin in 60 mM Tris–HCl, pH 7.4, as a substrate. Fluorescence intensity of methylcoumarin was measured on an Infinite 200 PRO plate reader (Tecan) using the following settings: excitation wavelength: 341 nm; emission wavelength: 441 nm; excitation bandwidth: 9; emission bandwidth: 20 nm; gain: 109 manual; number of flashes: 25; integration time: 20 µs; lag time: 0 µs; settle time: 0 ms.
(§2) The IC50 of each inhibitor was calculated by non-linear regression analysis of inhibition data using GraphPad Prism Software (GraphPad Software, Version 9.00, San Diego, CA). Steady-state enzyme kinetic analyses were performed using various concentrations of L-alanine-p-nitroanilide (0–1.5 mM) and VGCARRYCS peptide (0–900 nM). The initial velocities (Vo) were calculated from the slopes of the first 5 min of reaction. The enzyme inhibitory constant (Ki) was calculated using the competitive enzyme inhibition model in GraphPad Prism Software.
Fig. 2 G4 recognizes soluble forms of CD13, with higher affinity and selectivity than bestatin, and the membrane forms expressed on the surface of HUVEC cells. A Inhibitory effects of G4 and bestatin on the enzymatic activities of different aminopeptidases (rCD13, APA, and APB). Various amounts of G4 or bestatin were incubated with rCD13 (0.2 µg/mL in 60 mM Tris–HCl pH 7.4), APA (0.2 µg/mL in 60 mM Tris–HCl pH 7.4, 50 mM calcium chloride, 200 mM sodium chloride) or APB (0.2 µg/mL in 60 mM Tris–HCl pH 7.4, 100 mM potassium chloride) and the corresponding substrates at 0.1 mM (L-alanine-7-amido-4-methylcoumarin for rCD13, L-glutamic acid γ-(7-amido-4-methylcoumarin) for APA, and L-arginine-7-amido-4-methylcoumarin for APB). The mixtures were incubated for 30 min at 37 °C, and the cleavage of each substrate was monitored by measuring the fluorescence of methylcoumarin (λex 341 nm; λem 441 nm) using an Infinite 200 PRO plate reader (Tecan). Three independent experiments were performed for each enzyme. The results of one representative experiment for each enzyme are shown (mean ± SEM, duplicates). B Inhibitory effects of G4 and bestatin on soluble CD13 immunocaptured from human serum (sCD13) using microtiter plates coated with anti-CD13 mAb WM15. The microtiter plate was filled with a solution of mAb WM15 (5 μg/ml in DPBS) and incubated overnight at 4 °C. The plate was then washed with DPBS, blocked with 3% bovine serum albumin (BSA) in DPBS, and filled with human serum containing soluble CD13 (diluted 1:2 with DPBS containing 2% BSA). After washing with DPBS, mixtures of G4 or bestatin (0–100 µM in 60 mM Tris–HCl, pH 7.4) and L-alanine p-nitroanilide hydrochloride substrate (4.5 mM in 60 mM Tris–HCl, pH 7.4) were added and left to incubate at 37 °C for 2 h. Substrate cleavage by sCD13 dissociated from mAb WM15 was then monitored by measuring the absorbance at 405 nm in each well using a plate reader (Bio-Rad). The results of one experiment performed in triplicate are shown (mean ± SEM). C Effect of G4 on the binding of the anti-CD13 mAb WM15 to HUVEC. HUVEC were seeded at a density of 2 × 10^5 cells in 100 µL DPBS supplemented with 5% normal human serum (NHS) and incubated with a mixture of G4 peptide (0, 0.1, 1, and 10 µM) and mAb WM15 (0 or 0.13 nM) as indicated. […]

[3] = target: T1, recombinant human CD13 (rCD13); assay: rCD13 enzyme inhibition assay, L-alanine-p-nitroanilide substrate; type: biochemical; conditions: Fig. 4B and 4E, one experiment in duplicate
Experimental: as §1, §2
A) VGCGRRYCSN and CSGIGSSGGC (control) peptides, at various concentrations, were mixed with rCD13 (0.2 µg/mL), L-alanine-p-nitroanilide substrate (0.5 mM), in 60 mM potassium phosphate buffer, pH 7.4. The mixtures were left to react for 30 min at 37° C; then the absorbance at 405 nm of each mixture was measured using an ELISA plate reader (Bio-Rad). The IC50 of each inhibitor was calculated by non-linear regression analysis of inhibition data using the GraphPad Prism Software (GraphPad Software, Version 9.00, San Diego, CA). The result of one experiment performed in duplicate is shown (mean ± SEM).

HUVEC = HUVEC cell adhesion assay on coated microtiter plates; type: cell-based, human; conditions: plates coated with 10 µg/mL, 4 × 10^5 HUVEC, 2.5 h, 37 °C, crystal violet, absorbance 540 nm
Experimental: The peptide VGCARRYCSGGSGGGSGK-biotin, with a biotin moiety linked to the ε-aminogroup of the Lys residue (ProteoGenix), was complexed with streptavidin (G4-streptavidin) or avidin (G4-avidin) by mixing it with a molar excess of streptavidin or avidin in DPBS (1:6 mol/mol), followed by incubation for 1 h at room temperature under mild stirring. To perform the cell adhesion assay, 96-well polyvinyl chloride microtiter plates were coated with G4-avidin or G4-streptavidin (10 µg/mL in DPBS, overnight, 4 °C). After blocking with 2% BSA in EBM-2 (45 min at room temperature), 4 × 10^5 HUVEC were seeded in Endothelial Cell Growth Basal Medium-2 (EBM-2, Cat. # 00190860, Lonza) and incubated for 2.5 h at 37 °C, 5% CO2. Unbound cells were removed by washing with EBM-2, and adherent cells were fixed with 3% paraformaldehyde and 2% sucrose in DPBS and stained with 0.5% crystal violet. The number of adherent cells was quantified by measuring the absorbance of the wells at 540 nm wavelength using a microplate reader.
Fig. 7 Adhesion of HUVEC cells to microtiter plates coated with G4-avidin or G4-streptavidin conjugates. Representative images of wells coated with 10 µg/mL of G4-avidin (A) or G4-streptavidin (B) complexes. Wells coated with avidin or streptavidin were used as negative controls. The absorbance of crystal violet-stained adherent cells is also shown. […]

[4] = test system: membrane CD13 expressed by HUVEC; assay: Competitive binding of anti-CD13 mAb WM15 to HUVEC by flow cytometry; parameters: species or system human; conditions: Fig. 4C and 4D
Experimental: HUVEC were seeded in 96-well U-bottom polystyrene microtiter plates at a density of 2 × 10^5 cells in 100 µL DPBS supplemented with 5% normal human serum (NHS) and mixed with a mixture of peptide G4 ranging from 0 to 10 µM and mAb WM15 (0 or 0.13 nM). The chromogranin A429-439 peptide fragment (CgA429-439) was used instead of G4 as a control. After 1 h of incubation at 4 °C, the cells were washed and resuspended in 100 µL of DPBS containing 5% NHS and 1 µg/mL of FITC-labeled goat anti-mouse IgG secondary antibody. Cells were subsequently incubated for 1 h at 4 °C, washed, and analyzed by flow cytometry. All flow cytometry data were collected on a CytoFLEX S flow cytometer (Beckman Coulter) and analyzed using FlowJo software 10 (BD BioScience).
Fig. 2 G4 recognizes soluble forms of CD13, with higher affinity and selectivity than bestatin, and the membrane forms expressed on the surface of HUVEC cells. A Inhibitory effects of G4 and bestatin on the enzymatic activities of different aminopeptidases (rCD13, APA, and APB). Various amounts of G4 or bestatin were incubated with rCD13 (0.2 µg/mL in 60 mM Tris–HCl pH 7.4), APA (0.2 µg/mL in 60 mM Tris–HCl pH 7.4, 50 mM calcium chloride, 200 mM sodium chloride) or APB (0.2 µg/mL in 60 mM Tris–HCl pH 7.4, 100 mM potassium chloride) and the corresponding substrates at 0.1 mM (L-alanine-7-amido-4-methylcoumarin for rCD13, L-glutamic acid γ-(7-amido-4-methylcoumarin) for APA, and L-arginine-7-amido-4-methylcoumarin for APB). The mixtures were incubated for 30 min at 37 °C, and the cleavage of each substrate was monitored by measuring the fluorescence of methylcoumarin (λex 341 nm; λem 441 nm) using an Infinite 200 PRO plate reader (Tecan). Three independent experiments were performed for each enzyme. […] Substrate cleavage by sCD13 dissociated from mAb WM15 was then monitored by measuring the absorbance at 405 nm in each well using a plate reader (Bio-Rad). […] After incubation for 60 min at 4 °C, the cells were washed and analyzed by flow cytometry. Data are expressed as the percentage of counts vs. fluorescence intensity units […]

Q: `CC(C)C[C@H](NC(=O)[C@@H](O)[C@H](N)Cc1ccccc1)C(=O)O` [bestatin, Bestatin-hydrochloride] was tested. Which “Inhibition of APB enzymatic activity (in words)” value [1] did it give?
A: Its value is “inhibited both rCD13 and APB”.

Q: And the “Inhibition of rCD13 enzymatic activity (in words)” value [2]?
A: The value was “inhibited both rCD13 and APB”.

Q: How did the “Inhibition of rCD13 enzymatic activity (in words)” value [3] turn out when “VGCARRYCSGGSGGGSGK-biotin [G4-avidin, …-biotin complexed with avidin]” was run?
A: The value was “could not inhibit the enzymatic activity of recombinant soluble CD13”.

Q: What about the “Endothelial cell adhesion to coated plates (in words)” value (HUVEC) of the same molecule?
A: Its value is “promoted endothelial cell adhesion”.

Q: And the “Competition of mAb WM15 binding to HUVEC (in words)” value [4]?
A: The value was “competed the binding of mAb WM15 to endothelial cells”.
